In US7026350B2, “Water-soluble drugs and methods for their production” (The United States of America as represented by the …, priority 1998, dated 2006):
Like-named read-outs stand apart in the source and are kept apart here.

Legend:
N87 cells = assay: N87 proliferation measured by tritiated-thymidine incorporation; assay type: cell-based
Protocol: N87 cells were exposed to the 17-demethoxy-17-aminoderivative of geldanamycin indicated in Table 1 below, and the concentration at which the proliferation of the N87 cells was inhibited by 50% was determined in nanomolar units.

HuT102 cells = assay: Internalization of radiolabeled antibody by HuT102 cells; assay type: cell-based; conditions: cells washed with dilute acid
Protocol: This example employs three antibodies, e21, AE1 (from Landolfi, Protein Design Labs, California), and anti-Tac (i.e., Zenapax from Hoffman-LaRoche, Inc., Nutley, N.J.). The antibodies e21 and AE1 bind Her2 with high affinity, and anti-Tac binds CD25 with high affinity. All three antibodies were radiolabeled and incubated with cells expressing the respective ligands on their cell surfaces (N87 cells for e21 and AE1 and HuT102 cells for anti-Tac). Both N87 cells and HuT102 cells are cancer cells that are known to be sensitive to the effects of geldanamycin. (HuT102 cells are cultured cells from an ATL patient available from the inventor's laboratories.) The cells were washed with dilute acid to remove unincorporated radiolabel, and the amount of radiolabel remaining in the cells was measured as an indication of the amount of antibody internalized.

[1] = tritiated-thymidine incorporation, read-out: concentration that inhibited 50% of the N87 proliferation

17-cys-GMB-aminopropylaminogeldanamycin [compound 4]
solubility in water (Solubility in water): water-soluble

COC1C=CC=C(C)C(=O)NC2=CC(=O)C(NCCCN)=C(CC(C)CC(OC)C(O)C(C)C=C(C)C1OC(N)=O)C2=O (centres unmarked) [17-aminopropylamino-geldanamycin, 17-aminopropylaminogeldanamycin]
IC50 (N87 cells; [1]): 180 nM

COC1=C2C[C@@H](C)C[C@H](OC)[C@H](O)[C@@H](C)/C=C(\C)[C@H](OC(N)=O)[C@@H](OC)/C=C\C=C(/C)C(=O)NC(=CC1=O)C2=O [geldanamycin]
IC50 (N87 cells; Table 1, read-out: IC50 (nM), proliferation of N87 cells inhibited by 50%): 8.4 nM | IC50 (N87 cells; [1]): 8 nM

B1: anti-Tac: anti-Tac (i.e., Zenapax from Hoffman-LaRoche), binds CD25 with high affinity (antibody, chains of the INN, looked up, V domains shown)
VH: QVQLVQSGAEVKKPGSSVKVSCKASGYTFTSYRMHWVRQAPGQGLEWIGYINPSTGYTEYNQKFKDKATITADESTNTAYMELSSLRSEDTAVYYCARGGGVFDYWGQGTLVTVSS
VL: DIQMTQSPSTLSASVGDRVTITCSASSSISYMHWYQQKPGKAPKLLIYTTSNLASGVPARFSGSGSGTEFTLTISSLQPDDFATYYCHQRSTYPLTFGQGTKVEVK
radiolabel taken up by HuT102 cells (antibody internalized) (HuT102 cells): no significant quantity
